Test results taken from PMC5608352, “Formyl peptide derived lipopeptides disclose differences between the receptors in mouse and men and call the pepducin concept in question” (PLoS ONE, 2017).
Entries after “also recorded” stand apart in the source; their conditions may differ. No end group written: not given here. *: point of attachment. Palmitoyl = CCCCCCCCCCCCCCCC(=O)*

Assays:
FPR2 [1] = experiment: Inhibition of F2Pal16 (FPR2 activating pepducin)-induced superoxide release, human neutrophils; format: cell-based; settings: PBP10 1 μM or CysH 1 μM, 5 min pre-incubation; F2Pal16 1 μM; five experiments
Description: Human peripheral blood neutrophils were isolated from buffy coats from healthy blood donors using dextran sedimentation and Ficoll-Paque gradient centrifugation as described. The remaining erythrocytes were disrupted by hypotonic lysis and the neutrophils were washed twice, suspended in KRG and, stored on melting ice until use. This isolation process permits cells to be purified with minimal granule mobilization. The buffy coats were obtained from the blood bank at Sahlgrenska University Hospital. Ethics approval was not needed since the buffy coats were provided anonymously and could not be traced back to a specific individual. This is in line with Swedish legislation section code 4§ 3p SFS 2003:460 (Lag om etikprövning av forskning som avser människor).
(§1) NADPH-oxidase activity was determined using an isoluminol and HRP-enhanced chemiluminescence (CL) system that allow for the determination of superoxide production. The CL activity was measured in a six-channel Biolumat LB 9505 apparatus (Berthold Co., Wildbad, Germany), using disposable 4-mL polypropylene tubes with 1 mL reaction mixture. […] The light emission was recorded continuously over time and presented as superoxide production (in arbitrary light units, cpm x10^-6) as a function of time (min). The activity before stimulus addition was recorded as basal line and this activity was not changed in vehicle control samples. […]

Fpr2 [2] = target: T1, Fpr2 (Mus musculus, UniProt O88536); set-up: method as in PMID 27614010; settings: ref [12]; cited from earlier work
T1 construct: WT mouse neutrophils (5 x 10^4 cells) were pre-incubated without (solid line) or with mF2Pal16; endogenous in cells; host or cells: bone marrow neutrophils of C57BL/6 wild-type mice, TNF-alpha primed
T1 sequence (O88536 1-351): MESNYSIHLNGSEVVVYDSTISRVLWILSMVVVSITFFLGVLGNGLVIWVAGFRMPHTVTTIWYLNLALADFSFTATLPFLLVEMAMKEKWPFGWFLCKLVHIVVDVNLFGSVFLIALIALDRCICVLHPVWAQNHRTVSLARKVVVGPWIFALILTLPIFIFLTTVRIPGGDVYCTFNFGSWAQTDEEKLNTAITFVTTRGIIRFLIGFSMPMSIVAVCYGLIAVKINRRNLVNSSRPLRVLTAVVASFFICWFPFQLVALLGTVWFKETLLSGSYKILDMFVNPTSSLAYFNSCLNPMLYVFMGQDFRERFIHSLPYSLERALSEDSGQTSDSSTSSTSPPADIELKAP
Description: When looking at the FPRs in different species it is clear that the receptor family has a complex evolutionary history, as illustrated by the fact that the number of genes in the family vary markedly in mouse and man. […] As different mouse models constitute important tools for translational studies aiming to understa ... || Genetically modified mouse strains and mouse disease models provide excellent tools to study the function of neutrophil FPRs in vivo. Such studies have indicated Fprs (in particular Fpr2) as important regulators of the physiological processes leading to resolution of inflammation. However, a direct translation of mouse data to human studies is hampered due to the distant phylogenetic relationship between mouse and human receptors. In addition to the different number of Fpr genes in mice and humans and an incomplete understanding of the evolutionary relationship between human FPRs ...

Fpr2 [3] = target: T1, Fpr2; experiment: Inhibition of F2Pal16-induced superoxide release, WT mouse neutrophils; format: cell-based; settings: Boc2 2 μM or peptidomimetic inhibitor 1 μM (five experiments), or mF2Pal16 500 nM against F2Pal16 500 nM (three experiments); 5 min pre-incubation
Description: Mice (8–12 weeks of age) were killed by cervical dislocation, the femurs and tibias were removed and freed of soft tissue attachments, and the extreme distal tip of each extremity was cut off. KRG without Ca^2+ and Mg^2+ (KRG-) was forced through the bone by using a 1-mL syringe with a 27-gauge needle. After dispersing cell clumps and removing the debris, the bone marrow granulocytes were isolated according to an earlier described procedure with some modifications. Briefly, a cell suspension in 2 mL of KRG- was laid on top of a three-layer Percoll gradient (1.095, 1.085, and 1.070 g/mL). The density of each Percoll solution was verified using density marker beads. After centrifugation at 500 × g for 30 min at 4°C in a swinging bucket rotor, the lowest band (1.085/1.095 g/mL interface) was collected as the neutrophil fraction. After washing with KRG-, remaining red blood cells were eliminated by hypotonic lysis. After a final wash with KRG-, the cells were resuspended in KRG. The cell number and population of bone marrow cells were determined by flow cytometry based on forward scatter (size) and side scatter (density) localization.
as §1
Data analysis was performed using Graph Pad Prism 7.0. The EC50/IC50 values were determined from experiments in which the activities were normalized to the response induced by maximal response or induced by agonist in the absence of inhibitor. […]

Fpr2^-/- neutrophils = experiment: Inhibition of F2Pal16-induced superoxide release, Fpr2^-/- mouse neutrophils; format: cell-based; settings: Boc2 2 μM, 5 min pre-incubation; F2Pal16 500 nM
Description: (§2) C57BL/6 wild-type mice were purchased from Charles River Laboratories and Fpr2^−/− mice generated as described previously, were generously provided by Dr Ji Ming Wang, Frederick National Laboratory for Cancer Research, USA. Mice were kept under standard temperature and light conditions and fed laboratory chow and water ad libitum, at the Department of Rheumatology and Inflammation Research, University of Gothenburg. Sex matched WT and Fpr2^-/- animals (age 8–10 weeks) were used to isolated bone marrow derived neutrophils. The studies performed were approved by the Ethical Committee for Animal Experimentation, Göteborg, Sweden.
(§3) Mice (8–12 weeks of age) were killed by cervical dislocation, the femurs and tibias were removed and freed of soft tissue attachments, and the extreme distal tip of each extremity was cut off. […] The cell number and population of bone marrow cells were determined by flow cytometry based on forward scatter (size) and side scatter (density) localization.
(§4) NADPH-oxidase activity was determined using an isoluminol and HRP-enhanced chemiluminescence (CL) system that allow for the determination of superoxide production. The CL activity was measured in a six-channel Biolumat LB 9505 apparatus (Berthold Co., Wildbad, Germany), using disposable 4-mL polypropylene tubes with 1 mL reaction mixture. […]

Fpr1 = experiment: Inhibition of fMIFL-induced superoxide release, Fpr2^-/- mouse neutrophils; format: cell-based; settings: Boc2 2 μM, 5 min pre-incubation; fMIFL 10 nM
Description: as §2, §3, §4

[4] = target: formyl peptide receptor Fpr2, mouse (mouse (endogenous in bone marrow neutrophils)) (UniProt O88536)
[5] = target: formyl peptide receptor Fpr2, mouse (mouse (endogenous in bone marrow neutrophils)) (UniProt O88536); remark: listed apart in the source

## Cyclosporin H
FPR2 [1]
  effect of inhibitor on F2Pal16 response, human neutrophils: not by the FPR1 inhibitor cyclosporine H
Fpr2 [2]
  activity at mouse Fprs (earlier work): lack effects on their mouse counterparts

## Boc-FLFLF [Boc2, Fpr1 antagonist]
Fpr2 [3]
  effect of inhibitor on F2Pal16 response, WT mouse neutrophils: no effect on the pepducin response
Fpr2^-/- neutrophils
  effect of inhibitor on F2Pal16 response, Fpr2^-/- neutrophils: insensitive to Boc2; also recorded: no effect on the pepducin response
Fpr1
  effect of inhibitor on fMIFL response, Fpr2^-/- neutrophils: completely abolished

## Palmitoyl-KIHKQGLIKSSRPLRV [F1Pal16 pepducin (Pal-…)]
[4]
  EC50 of superoxide release by wild-type mouse neutrophils, dose-response of F1Pal16: 300 nM

## Palmitoyl-KIHKKGMIKSSRPLRV [F2Pal16 pepducin (Pal-…)]
[5]
  EC50 of superoxide release by wild-type mouse neutrophils, dose-response of F2Pal16 (maximum at 1 uM): 300 nM
